Patent US8980587B2, “Process for producing reveromycin A or a synthetic intermediate thereof, process for producing compounds containing a spiroketal ring and novel antineoplastics, fungicides and therapeutic agents for bone disorders” (RIKEN, priority 2010, dated 2015)
Converted amounts (≈) assume the structure as drawn. Like-named read-outs stand apart in the source and are kept apart here.

Tests used:
[1] = tested on: HL-60 cells (human acute promyelocytic leukemia cell line); test: Growth-inhibiting activity against animal cells (WST-8), HL-60; format: cell-based; conditions: for IC50: Homo sapiens, read-out: HL60 IC50; for cancer cell growth-inhibiting activity (in words): summary of Table 5 (HL60, K562, tsFT210), RM-T as compared with RM-A
Protocol: (§1) HL-60 cells (human acute promyelocytic leukemia cell line) and K562 cells (human chronic myeloid leukemia cell line) were maintained in a culture medium in which RPMI1640 medium (manufactured by Invitrogen) was added with 10% fetal bovine serum (manufactured by Nichirei), 0.5% penicillin/streptomycin solution (manufactured by Invitrogen) at 37° C. under a humidified culture of 5% CO2. tsFT210 cells (mouse breast cancer cells CDC2 temperature sensitive strain) were maintained in a culture medium in which RPMI1640 medium (manufactured by Invitrogen) was added with 5% calf serum (manufactured by Hyclone) and 0.5% penicillin/streptomycin solution at 32° C. under a humidified culture of 5% CO2.
(§2) HL-60 cells and K562 cells were seeded in a 96-well plate (manufactured by IWAKI) so as to be 1.5×10^4 cells/well/100 μl. tsFT210 cells were seeded in a 96-well plate so as to be 1.6×10^4 cell/well/100 μl. Each of the agents in Table 5 was added at 0.5% (v/v). HL-60 cells and K562 cells were maintained at 37° C. under a humidified culture of 5% CO2 and tsFT210 cells were maintain at 32° C. under a humidified culture of 5% CO2. Forty eight hours after addition of the agent, 10 μl of a reagent SF solution for counting live cells (WST-8 reagent, manufactured by Nakarai tesque) was added to each well. HL-60 cells and K562 cells were maintained at 37° C. under a humidified culture of 5% CO2 for 30 minutes and tsFT210 cells were maintain at 32° C. under a humidified culture of 5% CO2 for one hour. After the reaction, absorbance at 450 nm was measured using a microplate reader (manufactured by PerkinElmer) and a cell proliferation rate was determined from the measurement value.

[2] = tested on: K562 cells (human chronic myeloid leukemia cell line); test: Growth-inhibiting activity against animal cells (WST-8), K562; format: cell-based
Protocol: as §1, §2

[3] = tested on: tsFT210 cells (mouse breast cancer cells CDC2 temperature sensitive strain); test: Growth-inhibiting activity against animal cells (WST-8), tsFT210; format: cell-based
Protocol: as §1, §2

[4] = tested on: Escherichia coli (HO141 strain); test: Growth-inhibiting activity against Escherichia coli; format: cell-based; conditions: 6 hours, absorbance at 600 nm, read-out: E. coli IC50
Protocol: Escherichia coli (HO141 strain) was precultured in culture medium of 0.5% Polypeptone, 0.5% Meat Extract, 0.3% NaCl, and 0.001% Sodium Dodecyl Sulfate (SDS) at 37° C. Absorbance at 600 nm was measured, and Escherichia coli solution was prepared such that the absorbance is 0.005 and seeded 100 μl each in a 96-well plate. Each of the agents in Table 5 was added at 0.5% (v/v) and maintained at 37° C. Six hours after addition of the agent, absorbance at 600 nm was measured using a microplate reader (manufactured by PerkinElmer) and a proliferation rate was determined from the measurement value.

[5] = tested on: Budding yeast (MLC30M strain); test: Growth-inhibiting activity against yeast; format: cell-based; conditions: for IC50: Saccharomyces cerevisiae, read-out: Yeast IC50
Protocol: Budding yeast (MLC30M strain) was precultured in a culture medium of 2% Polypeptone, 1% yeast extract, 2% glucose, 0.02% adenine, and 0.001% sodium dodecyl sulfate (SDS) at 30° C. Absorbance at 600 nm was measured, and yeast solution was prepared such that the absorbance is 0.05 and seeded 100 μl each in a 96-well plate. Each of the agents in Table 5 was added at 0.5% (v/v) and maintained at 30° C. Eighteen hours after addition of the agent, absorbance at 600 nm was measured using a microplate reader (manufactured by PerkinElmer) and a proliferation rate was determined from the measurement value.

osteoclasts = test: Growth inhibitory activity against osteoclast (TRAP positive multinucleated cell count); format: cell-based, mouse; conditions: for IC50: Osteoclast, read-out: OC IC50
Protocol: Bone marrow cells were harvested from thigh bone and shin bone of five-week male ddY mouse (manufactured by Japan SLC, Inc.), seeded in a type I collagen coated plate (manufactured by IWAKI) in a culture medium in which α-MEM medium (manufactured by Sigma-Aldrich) was added with 10% fetal bovine serum, 0.5% penicillin/streptomycin solution, 50 ng/ml human M-CSF (Leukoprol, manufactured by Kyowa Hakko), and 1 ng/ml human TGF-β1 (manufactured by R&D Systems), and maintained at 37° C. under a humidified culture of 5% CO2 for 3 days. Cells were then washed twice with PBS and then cells adhered on the plate were used as bone marrow macrophage cells. Bone marrow macrophage cells were further maintained in a culture medium in which α-MEM medium was added with 10% fetal-bovine serum, 0.5% penicillin/streptomycin solution, 50 ng/ml human M-CSF, 50 ng/ml human soluble RANKL (manufactured by Peprotech) at 37° C. under a humidified culture of 5% CO2 for 3 days to differentiate into osteoclasts.
Each of the agents in Table 5 was added to osteoclasts at 0.5% (v/v) and maintained at 37° C. under a humidified culture of 5% CO2 for 24 hours. Subsequently, cells were treated with PBS solution containing 3.7% formalin at room temperature for 30 minutes. After the solution was removed, the cells were further treated with acetone/ethanol solution (1:1 vol/vol) at room temperature for one minute and the solution was removed to dry the cells. Immobilized cells were subjected to a reaction in TRAP solution [50 mM sodium tartrate, 90 mM sodium acetate, 0.01% naphthol AS-MX phosphate (manufactured by Sigma), 0.05% fast red violet LB salt (manufactured by Sigma), pH 5.0] at room temperature for 30 minutes and then washed with distilled water. The number of TRAP positive multinucleated osteoclasts was counted and a rate of survival was determined.

[6] = K562, 48 h, read-out: K562 IC50
[7] = tsFT210, 48 h, read-out: tsFT210 IC50

Compound | IC50 ([1]; HL-60, 48 h) [mg/L] | cancer cell growth-inhibiting activity (in words) [1] | IC50 [2, 6] [mg/L] | IC50 [3, 7] [mg/L] | IC50 [4] [mg/L] | IC50 ([5]; 18 h) [mg/L] | growth-inhibiting activity against yeast (in words) ([5]; summary of Table 5) | IC50 (osteoclasts; Mus musculus, 24 h) [mg/L] | IC50 ([1]; HL-60 cells, 48 hours after addition of the agent, WST-8) [mg/L] | IC50 ([2]; K562 cells, 48 hours after addition of the agent, WST-8, read-out: K562 IC50) [mg/L] | IC50 ([3]; tsFT210 cells, 32° C., 48 hours after addition of the agent, WST-8, read-out: tsFT210 IC50) [mg/L] | IC50 ([5]; MLC30M strain, 18 hours, absorbance at 600 nm) [mg/L] | IC50 (osteoclasts; mouse bone marrow derived osteoclasts, 24 hours, rate of survival) [mg/L] | growth inhibiting actions against osteoclast (in words) (osteoclasts; summary of Table 5)
CCCCC1CCC2(CCC(C)C(C/C=C(C)/C=C/C(O)C(C)/C=C/C(=O)O)O2)OC1/C=C/C(C)=C/C(=O)O (centres unmarked) [RM-T] | 0.2 (≈ 0.367 µM) | higher | 0.7 (≈ 1.29 µM) | 0.4 (≈ 0.734 µM) | > 50 | 0.05 (≈ 0.0918 µM) | exhibited growth-inhibiting activity against yeast | 6.2 (≈ 11.4 µM) | – | – | – | – | – | –
CCCC[C@H]1CC[C@]2(CC[C@H](C)[C@@H](C/C=C(C)/C=C/[C@H](O)[C@@H](C)/C=C/C(=O)OCC)O2)O[C@H]1/C=C/C(C)=C/C(=O)O [RM-T ethyl-ester] | – | high | – | – | > 50 | – | – | – | 0.2 (≈ 0.349 µM) | 0.7 (≈ 1.22 µM) | 11.4 (≈ 19.9 µM) | > 50 | 6 (≈ 10.5 µM) | –
CCCCCC[C@@]1(OC(=O)CCC(=O)O)CC[C@]2(CC[C@H](C)[C@@H](C/C=C(C)/C=C/[C@H](O)[C@@H](C)/C=C/C(=O)O)O2)O[C@H]1/C=C/C(C)=C/C(=O)O [RM-E] | 1.5 (≈ 2.18 µM) | high | 1.9 (≈ 2.76 µM) | 7 (≈ 10.2 µM) | > 50 | 2.3 (≈ 3.34 µM) | – | 0.1 (≈ 0.145 µM) | – | – | – | – | – | exhibited growth inhibiting actions against osteoclast
CCCC[C@@]1(OC(=O)CCC(=O)O)CC[C@]2(CC[C@H](C)[C@@H](C/C=C(C)/C=C/[C@H](O)[C@@H](C)/C=C/C(=O)O)O2)O[C@H]1/C=C/C(C)=C/C(=O)O [RM-A, Reveromycin A] | 2.7 (≈ 4.09 µM) | – | 4.9 (≈ 7.42 µM) | 8.5 (≈ 12.9 µM) | > 50 | 4.3 (≈ 6.51 µM) | – | 0.06 (≈ 0.0908 µM) | – | – | – | – | – | –
